Tested on: mutant HCV PR: simeprevir: PRSIM_23 complex
Assay: HTRF disruption of pre-formed mutant complexes
Format: binding, Hepatitis C virus subtype 1a
Conditions: mutation at position 136
Procedure: Methods of determining whether the competing small molecule is capable of binding to the target protein in the T-SM complex and displacing the small molecule from the T-SM complex include assays where a pre-formed tripartiate complex is generated and the ability of the binding member to bind the T-SM complex is measured (e.g. by a homogeneous time-resolved florescence (HTFR) binding assay) as increasing concentrations of the competing small molecule are added. A competing small molecule may be capable to displaying the small molecule from the T-SM complex if it is capable of inhibiting binding of inhibiting the binding member from binding the T-SM complex by at least 50%, by at least 75%, by at least 80%, by at least 85%, by at least 90%, or by at least 95% when measured using the HTFR binding assay. In some embodiments, the competing small molecule is asunaprevir, paritaprevir, vaniprevir, grazoprevir, danoprevir or glecaprevir. The binding member, target protein and small molecule using in the method may be as further defined herein in relation to other aspects of the disclosure.
To further characterise the mutations made to the HCV NS3/4A PR, we investigated whether the small molecules were able to disrupt pre-formed mutant HCV PR: simeprevir: PRSIM_23 complexes. […] The degree of inhibition is dependent on the specific mutation made.

Structure (SMILES) | inhibition of pre-formed mutant complex
Cc1cnc(C(=O)N[C@H]2CCCCC/C=C\[C@@H]3C[C@@]3(C(=O)NS(=O)(=O)C3CC3)NC(=O)[C@@H]3C[C@@H](Oc4nc5ccccc5c5ccccc45)CN3C2=O)cn1 [paritaprevir] | more pronounced inhibition
C=C[C@@H]1C[C@]1(NC(=O)[C@@H]1C[C@@H](Oc2ncc(OC)c3ccc(Cl)cc23)CN1C(=O)[C@@H](NC(=O)OC(C)(C)C)C(C)(C)C)C(=O)NS(=O)(=O)C1CC1 [asunaprevir] | more pronounced inhibition
CC(C)(C)[C@@H]1NC(=O)O[C@@H]2CCC[C@H]2OC/C=C/C(F)(F)c2nc3ccccc3nc2O[C@@H]2C[C@@H](C(=O)N[C@]3(C(=O)NS(=O)(=O)C4(C)CC4)C[C@H]3C(F)F)N(C2)C1=O [glecaprevir] | more pronounced inhibition
CC[C@@H]1C[C@]1(NC(=O)[C@@H]1C[C@@H]2CN1C(=O)[C@H](C(C)(C)C)NC(=O)OCC(C)(C)CCCCc1cccc3c1CN(C3)C(=O)O2)C(=O)NS(=O)(=O)C1CC1 [vaniprevir] | more pronounced inhibition
C=C[C@@H]1C[C@]1(NC(=O)[C@@H]1C[C@@H]2CN1C(=O)[C@H](C(C)(C)C)NC(=O)O[C@@H]1C[C@H]1CCCCCc1nc3ccc(OC)cc3nc1O2)C(=O)NS(=O)(=O)C1CC1.O [grazoprevir] | more pronounced inhibition
CC(C)(C)OC(=O)N[C@H]1CCCCC/C=C\[C@@H]2C[C@@]2(C(=O)NS(=O)(=O)C2CC2)NC(=O)[C@@H]2C[C@@H](OC(=O)N3Cc4cccc(F)c4C3)CN2C1=O [danoprevir] | more pronounced inhibition
